{"source": "patent US20230220331A1", "about": "“TEMPORARY TREATMENT MEDIUM, TREATMENT KIT, EMBRYOGENESIS ARREST INHIBITOR, EMBRYOGENESIS ARREST INHIBITORY METHOD, DEVELOPMENTAL ENGINEERING PRODUCT PREPARATION METHOD, TRANSPLANTATION METHOD, THERAPEUTIC METHOD, AND DEVELOPMENTAL ENGINEERING PRODUCT” (priority 2020, published 2023)", "key": {"[1]": {"system": "two-cell frozen embryo of a heterologous inbred SPR2 mouse", "assay": "ES cell establishment from SPR2 frozen embryos (Treatment Example 3)", "format": "cell-based, Mus spretus", "details": "5 SPR2 frozen embryos thawed and cultured to blastocyst in Y-27632 medium", "protocol": "5. Then, if necessary, the culture was continued in the Y-27632-free mWM medium to establish ES cells.\nAfter thawing a two-cell frozen embryo of a heterologous inbred SPR2 mouse, it was cultured to a blastocyst in the temporary treatment medium containing Y-27632, and an attempt was made to establish ES cells. As a result, ES cells could be efficiently established (5 frozen embryos, 2 strains established). On the other hand, when Y-27632 was not added, no individual production and ES cells were established."}, "[2]": {"system": "thawed 2-cell stage embryos of heterologous inbred SPR2 mouse", "assay": "Individuals by embryo transfer after freeze-thaw and electroporation (Treatment Example 5)", "format": "cell-based, Mus spretus", "protocol": "1. Up to 3 hours before TAKE, Y-27632-added mWM medium (Y-27632 final concentration 10 μM, an example of the “temporary treatment medium” of this example), Y-27632-free mWM medium (an example of “normal medium” of this example) were dropped into 35 mm Petri dishes by 5 drops, respectively, to prepare drops covered with paraffin oil.\n2. Two-cell stage embryos were collected from the drops or thawed, placed in Y-27632-added mWM medium, and cultured for about 30 minutes to 1 hour (temporary treatment).\n3. After that, TAKE was performed.\n4. After TAKE, the embryos were placed in Y-27632-added mWM medium and cultured for about 30 minutes to 1 hour (temporary treatment). Then, the embryos were placed in Y-27632-free mWM medium and cultured at 37° C. under 5% CO2 and 5% O2 conditions until transplantation.\nNext, the effect of the temporary treatment medium of this example on the heterologous inbred SPR2 mouse, which cannot obtain the individual by embryo transfer after freeze-thaw and electroporation, was measured.\nIn the heterologous inbred SPR2 mouse, the thawed 2-cell stage embryos that were cultured in the temporary treatment medium of this example for the specific period before and after electroporation were used, […], and 7 individuals were able to be obtained. […]"}, "[3]": {"system": "pronuclear stage embryos of F344 rat", "assay": "Flox rat knock-in by 2STEP electroporation with high concentration ssODN (Treatment Example 6)", "format": "cell-based", "details": "ssODN 800 ng/μL, 14 transfer pulses", "protocol": "1. At least 3 hours before TAKE, 5 drops of Y-27632-added KSOM AA medium (Y-27632 final concentration 10 μM, an example of the “temporary treatment medium” of this example) were placed on a 35 mm Petri dish and drops covered with paraffin oil.\n2. Pronuclear stage embryos were collected, placed in Y-27632-added KSOM AA medium, and cultured for about 30 minutes to 1 hour (temporary treatment).\n3. After that, the first TAKE was performed.\n4. After TAKE, the embryos were placed in Y-27632-added KSOM AA medium and cultured under 37° C., 5% CO2, and 5% O2 conditions for 30 minutes and more and up to 12 hours (temporary treatment).\n5. Then, they were placed in Y-27632-free KSOM AA medium (an example of the “normal medium” of this example), and cultured under 37° C., 5% CO2, and 5% O2 conditions until the second TAKE.\n6. The next day, the embryos that had become two cells were separated, and about 20 to 22 hours after egg collection, they were placed in Y-27632-added KSOM AA medium again and cultured for about 30 minutes to 1 hour (temporary treatment).\n7. After that, the second TAKE was performed.\n8. After the second TAKE, the embryos were placed in Y-27632-added KSOM AA medium and cultured for about 30 minutes to 1 hour (temporary treatment).\n9. Then, they were transferred to mR1ECM medium (an example of “normal medium” of this example). […]"}, "NOD-scid mouse embryos": {"system": "NOD-scid mouse embryos", "assay": "Bbox1 and IL2rg DKO screening in NOD-scid mice (Treatment Example 14)", "format": "cell-based", "protocol": "Then, in the same manner as in Treatment Example 7 of Example 1, in the NOD-scid strain, which is another strain of a severe combined immunodeficiency mouse, genome editing of multiple genes was performed, and individuals were produced. Here, individuals in which both the mBBOX1 and mIL2RG genes of NOD-scid mice were knocked out were prepared by the same treatment method as the above-mentioned treatment example used for BALB/c nude."}, "[4]": {"system": "early embryos of the inbred mouse B6J strain", "assay": "Recovery of inbred mouse early embryos frozen and thawed multiple times (Treatment Example 15)", "format": "cell-based", "details": "frozen TWICE", "from_the_text": "Then, in the same manner as in Treatment Example 9 according to Example 1, it was investigated whether or not the early embryos of the inbred mouse B6J strain, not the normal mice, could recover after frozen and thawed at multiple times."}, "C57BL/6J blastocysts": {"system": "C57BL/6J blastocysts", "assay": "Developmental efficiency of frozen embryo transfer (Treatment Example 18)", "format": "cell-based, mouse", "details": "C57BL/6J freeze-thawed blastocysts, 38 embryos transferred", "protocol": "Specifically, in the blastocysts of C57BL/6J mice, a freeze-thaw manipulation was performed by using the above-mentioned temporary treatment medium by using Y-27632 or the normal medium as control. Further, an average of 20 blastocysts per recipient (MCH mouse) was transplanted into the uterus. The newborn was delivered by Caesarean section (CS), and the number of implantation marks and the number of newborns were confirmed. Weaning mice were suckled by foster parents, the number of weaning mice was confirmed, and the weaning survival rate was calculated. In addition, the embryo medium was used based on the mWM medium."}, "[5]": {"details": "NOD-scid F0, Bbox1 and IL2rg, listed as temporary treatment medium"}}, "data": [{"molecule": "C[C@@H](N)[C@H]1CC[C@H](C(=O)Nc2ccncc2)CC1", "note": "[Y-27632, trans-4-[(1R)-1-Aminoethyl]-N-4-pyrid inylcyclohexanecarboxamide]", "values": [{"measurement": "ES cell strains established", "setting": "[1]", "result": 2, "unit": "strains"}, {"measurement": "individuals obtained", "setting": "[2]; SPR2 thawed 2-cell embryos, treated before and after electroporation, 17 2-cell embryos transplanted into the oviduct", "result": 7}, {"measurement": "individuals obtained", "setting": "[2]; SPR2 thawed, electroporated, 16 blastocysts transplanted into the uterus 3.5 days after plug", "result": 5}, {"measurement": "samples developed to blastocysts (PCR AMPLIFICATION)", "setting": "[3]; F344, 2STEP, of 86 samples", "result": 67}, {"measurement": "Flox (proportion)", "setting": "[3]; F344 blastocysts, 2STEP", "result": "1/67"}, {"measurement": "individuals mutated at Bbox1 Ex3 (chr. 2) (proportion)", "setting": "NOD-scid mouse embryos; NOD-scid F0", "result": "#U: unknown mutation (4/9) (4/9)"}, {"measurement": "individuals mutated at Il2rg (chr. X) Ex2 (proportion)", "setting": "NOD-scid mouse embryos; NOD-scid F0", "result": "#U: unknown mutation (4/9) (4/9)"}, {"measurement": "individuals mutated at Il2rg (chr. X) Ex3 (proportion)", "setting": "NOD-scid mouse embryos; NOD-scid F0", "result": "#U: unknown mutation (4/9) (4/9)"}, {"measurement": "individuals with mutations in one of the two genes (%)", "setting": "NOD-scid mouse embryos; [5]", "result": 66.7, "unit": "%"}, {"measurement": "individuals with mutations in one of the two genes (proportion)", "setting": "NOD-scid mouse embryos; [5]", "result": "6 out of 9 and (6/9)"}, {"measurement": "NUMBER OF RECOVERIES", "setting": "[4]", "result": "24/26"}, {"measurement": "recoveries %", "setting": "[4]", "result": 92, "unit": "%"}, {"measurement": "Implantation mark", "setting": "C57BL/6J blastocysts", "result": 13}, {"measurement": "Weaning (number of weaning mice)", "setting": "C57BL/6J blastocysts", "result": 10}, {"measurement": "Weaning survival rate", "setting": "C57BL/6J blastocysts", "result": 100, "unit": "%"}, {"measurement": "Pups (CS)", "setting": "C57BL/6J blastocysts; Caesarean section", "result": 10}]}]}
